# US4025631A, “Dihydroquinoline derivatives of antioxidant activity” (priority 1971, dated 1977)
# Counter-ions that a name gives are not always drawn.
# Columns and labels:
# [1] = system: encephalomalacia of poultries; conditions: versus EMQ; cited from earlier work
# [2] = cited from earlier work
# [3] = antioxidant effect on fish-meal samples, Warburg apparatus; conditions: 40 g. of fish meal + 0.04 g. of antioxidant; for Oxygen Uptake (decrease of O2 pressure, mmHg): 29° C., control 19.5; for Peroxide Number (calculated for 1 g. of fish meal): treated with oxygen, control 7.83
# Experimental: The antioxidant effect of the new substances shown in foodstuffs and nutriments was investigated on fish-meal samples. […] In these experiments the oxygen uptake of fish-meal samples containing the various antioxidants was determined in a Warburg apparatus at 29° C., and the results were compared with those measured on samples containing no antioxidant. The peroxide number of samples treated with oxygen was also determined.
# rats [4] = conditions: 14 days, 0.50 g./kg.; cited from earlier work
# animals = conditions: longer period, dose of 0.56 g./kg.; cited from earlier work
# [5] = LD50 (Korber method, modified by Cornfield); conditions: in vivo
# Description: The LD50 values of BHT and EMQ are, on the other hand, the following -- measured according to the Korber method, modified by Cornfield: […]
# solubility = type: physicochemical
# malignant tumors = experiment: appearance of malignant tumors in animals irradiated with minimum doses for a long period; type: in vivo; conditions: minimum irradiation doses for a long period, versus irradiated controls without XAX
# Description: Another important and unexpected property of the new substances is that they exert radiosensibilizing effect. […] On the basis of this property, the new compounds can also be used for the potentiating of the effect of irradiation therapy.
# rats [6] = experiment: continuous administration of XAX for three weeks / 90 days; type: in vivo
# Description: (§1) Since the novel compounds are completely nontoxic, they can be used with great advantage in animal husbandry and in the food industry, as well as in therapy. On the basis of the investigations carried out on the acute and chronic toxicity of these new active agents, it can be stated that they are completely free of the disadvantages of the hitherto-known antioxidants mentioned above, first of all as regards their use in therapy.
# rats [7] = conditions: rat, in vivo
# Description: as §1
# serum cholesterol level = experiment: serum cholesterol of cholesterol-treated rabbits; type: in vivo; conditions: 1 g. of cholesterol per day, 0.06 g./kg. XAX daily for 70 or 105 days
# Experimental: Due to this fact they can also be used for the prophylaxis and treatment of arteriosclerois. This effect of the new substances was investigated on rabbits treated with 1 g. of cholesterol per day. The animals were treated for 70 or 105 days with daily doses of 0.06 g./kg. of XAX. […] Using the hitherto-known antioxidants, this very favorable and important effect could not be reached at all.
smiles,measurement,setting,value
Cc1cc(C(C)(C)C)c(O)c(C(C)(C)C)c1 [BHT],activity in encephalomalacia of poultries,[1],far lower activity than EMQ
same,anophthalmia (teratogeneous effect),[2]; aftereffect,the appearance of anophthalmia was observed
same,cholesterol-synthesis in the liver and endogenous epoxidation,[2]; in vivo,the cholesterol-synthesis in the liver as well as the endogenous epoxidation increases
same,endogenous production of fatty acids and β-oxidation,[2]; in vivo,stimulates the endogenous production of fatty acids and β-oxidation
same,gestation period,[2]; in vivo,increases the gestation period
same,"Oxygen Uptake (decrease of O2 pressure, mmHg)",[3],16.5 mmHg
same,Peroxide Number (calculated for 1 g. of fish meal),[3],3.42
"CCOc1ccc2c(c1)C(C)=CC(C)(C)N2 [EMQ, 6-ethoxy-2,2,4-trimethyl-1,2-dihydroquinoline]",appetite of the animals,rats [4],the appetite of the animals was lowered
same,size of the liver,rats [4],an increase in size of the liver was observed
same,appetite,animals,may cause appetite lowering
same,gain in weight,animals,lowers the gain in weight
same,LD50,[5],2230 ± 300 mg/kg
same,"Oxygen Uptake (decrease of O2 pressure, mmHg)",[3],23.5 mmHg
same,Peroxide Number (calculated for 1 g. of fish meal),[3],2.87
"CC1=CC(C)(C)Nc2ccc(Cc3ccc4c(c3)C(C)=CC(C)(C)N4)cc21 [Example 8, bis-(2,2,4-trimethyl-1,2,-dihydroquinolyl-6)-methane]",solubility in water and alcohol,solubility,well soluble in water and alcohol
"CC1=CC(C)(C)Nc2ccc(Cc3ccc4c(c3)C(C)=CC(C)(C)N4)cc21 [Example 9, bis-(2,2,4-trimethyl-1,2-dihydroquinolyl-6)-methane]",solubility in water and alcohol,solubility,soluble in water and alcohol
"CC1=CC(C)(C)Nc2ccc(Cc3ccc4c(c3)C(C)=CC(C)(C)N4)cc21 [XAX, bis-(2,2,4-trimethyl-1,2-dihydroquinolyl-6)-methane]",appearance of malignant tumors,malignant tumors,could be suppressed
same,damaging of tissues or cells,"rats [6]; daily doses of 0.25 mg./kg., three weeks",no damaging of tissues or cells could be observed
same,weight gain and blood picture,"rats [6]; rats, 90 days, same dose",Neither the weight gain nor the blood picture of the animals was harmfully affected
same,weight gain of some organs,"rats [6]; rats, 90 days, same dose, versus untreated animals",no excessive weight gain of some organs of the animals could be observed
same,harmful effects,"rats [6]; rats, same dose (0.25 mg./kg. daily), 90 days",No harmful effects could be observed
same,toxic symptoms,rats [7],no toxic symptoms
same,"Oxygen Uptake (decrease of O2 pressure, mmHg)",[3],11.5 mmHg
same,Peroxide Number (calculated for 1 g. of fish meal),[3],1.54
same,cholesterol level of the blood,serum cholesterol level,the cholesterol level of the blood decreased to a great extent
CC1=CC(C)(C)Nc2ccc(Cc3ccc4c(c3)C(C)=CC(C)(C)N4)cc21 [sulfuric acid salt of XAX],solubility in water and alcohol,solubility,soluble in water and alcohol
